From US20230089368A1, “POLYAROMATIC UREA DERIVATIVES AND THEIR USE IN THE TREATMENT OF MUSCLE DISEASES” (ANAGENESIS BIOTECHNOLOGIES S.A.S., priority 2019, published 2023) come the findings set out here.

Structures are written as SMILES.

The subject of assay [1] is muscle progenitors (hMP) from DMD hiPSC or WT hiPSC. Description: Myotube assay: myogenic activity (total myotube area per well). The assay is classed as cell-based, human. The note with it: for Emax: Homo sapiens, 72 h, myotube assay, compounds incubated 3 days, read-out: MA (normalized Myotube Area, efficacy). Put shortly: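 DMD or WT hiPSC-derived muscle progenitors plated on collagen I in K5 medium with 5 μM Y-27632, treated with compound (1.5 nM–30 μM) for 3 days at 37° C. Cells were fixed, stained for alpha-actinin and imaged for total myotube area per well. EC50 and normalized myotube area (MA) taken from duplicate-averaged data.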

Assay [2] has as its system satellite-like cells (Pax7-positive cells) in hMP. Description: Myotube assay: Pax7-positive (satellite-like) cell quantification. On the set-up: key to Pax7% (pool of Pax7-positive cells) / Pax7: −: Depletes the pool of cells, while positively affects the myotubes; +: Maintains or increases the pool of cells, with at least 1 of the highest concentration known to be cytotoxic; ++: Maintains or increases the pool of cells, without any toxicity. The note with it: for Pax7% (pool of Pax7-positive cells): myotube assay, compounds incubated 3 days. The assay is classed as cell-based, human. Put shortly: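 DMD hiPSC-derived muscle progenitors (hMP) proliferated 4 days, then plated on collagen I in K5 medium with 5 μM Y-27632. Compound added at 1.5 nM–30 μM for 3 days at 37° C, then cells fixed and immunostained. Pax7-positive cells counted as percentage of total nuclei, duplicates averaged.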

In the case of `CSc1cc(Oc2ccnc3[nH]c(=O)ccc23)ccc1NC(=O)Nc1cc(C(C)(C)C)nn1-c1ccccc1` [(do), 1-(3-(tert-butyl)-1-phenyl-1H-pyrazol-5-yl)-3-(2-(methylthio)-4-((7-oxo-7,8-dihydro-1,8-naphthyridin-4-yl)oxy)phenyl)urea], the Emax in assay [1] is at least 75%. Besides, the “Pax7% (pool of Pax7-positive cells)” value in assay [2] is “+”.

For the compound `CSc1cc(Oc2ccnc3[nH]c(=O)cnc23)ccc1NC(=O)Nc1cc(C(C)(C)C)nn1-c1ccc(CN(C)C)cc1` [(dp), 1-(3-(tert-butyl)-1-(4-((dimethylamino)methyl)phenyl)-1H-pyrazol-5-yl)-3-(2-(methylthio)-4-((3-oxo-3,4-dihydropyrido[2,3-b]pyrazin-8-yl)oxy)phenyl)urea], the Emax in assay [1] was at least 75%. Moreover, the “Pax7% (pool of Pax7-positive cells)” value in assay [2] is “+”.

Consider `CSc1cc(Oc2ccnc(NC(=O)CO)c2)ccc1NC(=O)Nc1cc(C(C)(C)C)nn1-c1ccccc1` [(dq), N-(4-(4-(3-(3-(tert-butyl)-1-phenyl-1H-pyrazol-5-yl)ureido)-3-(methylthio)phenoxy)pyridin-2-yl)-2-hydroxyacetamide], for which the Emax in assay [1] was at least 75%. In addition, the “Pax7% (pool of Pax7-positive cells)” value in assay [2] was “+”.

Turning to `O=C(Nc1ccc(Oc2ccnc3[nH]c(=O)cnc23)cc1F)Nc1cc(C2CC2)nn1-c1ccccc1` [(e), 1-(3-cyclopropyl-1-phenyl-1H-pyrazol-5-yl)-3-(2-fluoro-4-((3-oxo-3,4-dihydropyrido[2,3-b]pyrazin-8-yl)oxy)phenyl)urea], in assay [1], the Emax lay within 25 to 50%. The “Pax7% (pool of Pax7-positive cells)” value in assay [2] is on record as “++”.

As for `CC1(c2cc(NC(=O)Nc3ccc(Oc4ccnc5[nH]c(=O)cnc45)cc3F)n(-c3ccccc3)n2)COC1` [(f), 1-(2-fluoro-4-((3-oxo-3,4-dihydropyrido[2,3-b]pyrazin-8-yl)oxy)phenyl)-3-(3-(3-methyloxetan-3-yl)-1-phenyl-1H-pyrazol-5-yl)urea], the Emax in assay [1] lay within 50 to 75%. Also, the “Pax7% (pool of Pax7-positive cells)” value in assay [2] is “++”.

In the case of `CC(C)Cc1cc(NC(=O)Nc2ccc(Oc3ccnc4[nH]c(=O)cnc34)cc2F)n(-c2ccccc2)n1` [(g), 1-(2-fluoro-4-((3-oxo-3,4-dihydropyrido[2,3-b]pyrazin-8-yl)oxy)phenyl)-3-(3-isobutyl-1-phenyl-1H-pyrazol-5-yl)urea], in assay [1], the Emax was at least 75%. Besides, the “Pax7% (pool of Pax7-positive cells)” value in assay [2] is “+”.

With `CC(C)(C)c1cc(NC(=O)Nc2ccc(Oc3ccnc4[nH]c(=O)cnc34)cc2F)[nH]n1` [(h), 1-(3-(tert-butyl)-1H-pyrazol-5-yl)-3-(2-fluoro-4-((3-oxo-3,4-dihydropyrido[2,3-b]pyrazin-8-yl)oxy)phenyl)urea], the Emax in assay [1] fell in the range of 25 to 50%. Also, the “Pax7% (pool of Pax7-positive cells)” value in assay [2] is reported as “+”.

Consider `CC(C)n1nc(C(C)(C)C)cc1NC(=O)Nc1ccc(Oc2ccnc3[nH]c(=O)cnc23)cc1F` [(i), 1-(3-(tert-butyl)-1-isopropyl-1H-pyrazol-5-yl)-3-(2-fluoro-4-((3-oxo-3,4-dihydropyrido[2,3-b]pyrazin-8-yl)oxy)phenyl)urea], for which, in assay [1] (DMD hMP, 10 concentrations 1.5 nM to 30 μM, 3 days, FIG. 2), the “total myotube surface/well (myogenic activity)” value is listed as “dose-dependent increase”. For the same compound, the Emax in assay [1] was in the range of 50 to 75%. In addition, in assay [2] (DMD hMP, 10 concentrations 1.5 nM to 30 μM, 3 days, FIG. 3), the “percentage of Pax7-positive cells” value is listed as “dose-dependent increase”. Moreover, in assay [2], the “Pax7% (pool of Pax7-positive cells)” value is on record as “+”.

As to `CC(C)(C)c1cc(NC(=O)Nc2ccc(Oc3ccnc4[nH]c(=O)cnc34)cc2F)n(Cc2ccccc2)n1` [(j), 1-(1-benzyl-3-(tert-butyl)-1H-pyrazol-5-yl)-3-(2-fluoro-4-((3-oxo-3,4-dihydropyrido[2,3-b]pyrazin-8-yl)oxy)phenyl)urea], in assay [1], the Emax fell in the range of 50 to 75%. For the same compound, the “Pax7% (pool of Pax7-positive cells)” value in assay [2] was “++”.

As to `CC(C)(C)c1cc(NC(=O)Nc2ccc(Oc3ccnc4[nH]c(=O)cnc34)cc2F)n(CCN2CCOCC2)n1` [(k), 1-(3-(tert-butyl)-1-(2-morpholinoethyl)-1H-pyrazol-5-yl)-3-(2-fluoro-4-((3-oxo-3,4-dihydropyrido[2,3-b]pyrazin-8-yl)oxy)phenyl)urea], the Emax in assay [1] was 50 to 75%. Besides, the “Pax7% (pool of Pax7-positive cells)” value in assay [2] was “++”.

In the case of `CC(C)(C)c1cc(NC(=O)Nc2ccc(Oc3ccnc4[nH]c(=O)cnc34)cc2F)n(-c2cccnc2)n1` [(l), 1-(3-(tert-butyl)-1-(pyridin-3-yl)-1H-pyrazol-5-yl)-3-(2-fluoro-4-((3-oxo-3,4-dihydropyrido[2,3-b]pyrazin-8-yl)oxy)phenyl)urea], in assay [1], the Emax lay in the range of 50 to 75%. Further, the “Pax7% (pool of Pax7-positive cells)” value in assay [2] is given as “+”.

For the compound `CC(C)(C)c1cc(NC(=O)Nc2ccc(Oc3ccnc4[nH]c(=O)cnc34)cc2F)n(-c2ncccn2)n1` [(m), 1-(3-(tert-butyl)-1-(pyrimidin-2-yl)-1H-pyrazol-5-yl)-3-(2-fluoro-4-((3-oxo-3,4-dihydropyrido[2,3-b]pyrazin-8-yl)oxy)phenyl)urea], in assay [1], the Emax lay in the range of 50 to 75%. In addition, in assay [2], the “Pax7% (pool of Pax7-positive cells)” value is “++”.

For `CC(C)(C)c1cc(NC(=O)Nc2ccc(Oc3ccnc4[nH]c(=O)cnc34)cc2F)n(-c2ccc3ncccc3c2)n1` [(n), 1-(3-(tert-butyl)-1-(quinolin-6-yl)-1H-pyrazol-5-yl)-3-(2-fluoro-4-((3-oxo-3,4-dihydropyrido[2,3-b]pyrazin-8-yl)oxy)phenyl)urea], in assay [1], the Emax was at least 75%. Further, in assay [2], the “Pax7% (pool of Pax7-positive cells)” value is “+”.

Regarding `CC(=O)n1nc(C(C)(C)C)cc1NC(=O)Nc1ccc(Oc2ccnc3[nH]c(=O)cnc23)cc1F` [(o), 1-(1-acetyl-3-(tert-butyl)-1H-pyrazol-5-yl)-3-(2-fluoro-4-((3-oxo-3,4-dihydropyrido[2,3-b]pyrazin-8-yl)oxy)phenyl)urea], the Emax in assay [1] was 25 to 50%. Also, the “Pax7% (pool of Pax7-positive cells)” value in assay [2] is recorded as “++”.

On to `CC(C)(C)c1nc(NC(=O)Nc2ccc(Oc3ccnc4[nH]c(=O)cnc34)cc2F)n(-c2ccccc2)n1` [(p), 1-(3-(tert-butyl)-1-phenyl-1H-1,2,4-triazol-5-yl)-3-(2-fluoro-4-((3-oxo-3,4-dihydropyrido[2,3-b]pyrazin-8-yl)oxy)phenyl)urea], for which the Emax in assay [1] fell in the range of 25 to 50%. For the same compound, in assay [2], the “Pax7% (pool of Pax7-positive cells)” value is given as “++”.

For `CC(C)(C)c1cc(NC(=O)Nc2ccc(Oc3ccnc4[nH]c(=O)cnc34)cc2F)sn1` [(q), 1-(3-(tert-butyl)isothiazol-5-yl)-3-(2-fluoro-4-((3-oxo-3,4-dihydropyrido[2,3-b]pyrazin-8-yl)oxy)phenyl)urea], in assay [1], the Emax lay within 50 to 75%. The “Pax7% (pool of Pax7-positive cells)” value in assay [2] was “++”.

On to `CC(C)(C)c1nnc(NC(=O)Nc2ccc(Oc3ccnc4[nH]c(=O)cnc34)cc2F)s1` [(r), 1-(5-(tert-butyl)-1,3,4-thiadiazol-2-yl)-3-(2-fluoro-4-((3-oxo-3,4-dihydropyrido[2,3-b]pyrazin-8-yl)oxy)phenyl)urea], for which the Emax in assay [1] is at least 75%. Also, in assay [2], the “Pax7% (pool of Pax7-positive cells)” value is “++”.

Consider `CC(C)(C)c1cc(NC(=O)Nc2ccc(Oc3ccnc4[nH]c(=O)cnc34)cc2)n(-c2ccccc2)n1` [(s), 1-(3-(tert-butyl)-1-phenyl-1H-pyrazol-5-yl)-3-(4-((3-oxo-3,4-dihydropyrido[2,3-b]pyrazin-8-yl)oxy)phenyl)urea], for which the Emax in assay [1] was in the range of 50 to 75%. The “Pax7% (pool of Pax7-positive cells)” value in assay [2] is on record as “+”.

As for `CC(C)(C)c1cc(NC(=O)Nc2ccc(Oc3ccnc4[nH]c(=O)cnc34)nc2)n(-c2ccccc2)n1` [(t), 1-(3-(tert-butyl)-1-phenyl-1H-pyrazol-5-yl)-3-(6-((3-oxo-3,4-dihydropyrido[2,3-b]pyrazin-8-yl)oxy)pyridin-3-yl)urea], the Emax in assay [1] was in the range of 25 to 50%. Further, the “Pax7% (pool of Pax7-positive cells)” value in assay [2] is reported as “+”.

For the compound `CC(C)(C)c1cc(NC(=O)Nc2ccc(Oc3ccnc4[nH]c(=O)cnc34)cn2)n(-c2ccccc2)n1` [(u), 1-(3-(tert-butyl)-1-phenyl-1H-pyrazol-5-yl)-3-(5-((3-oxo-3,4-dihydropyrido[2,3-b]pyrazin-8-yl)oxy)pyridin-2-yl)urea], the Emax in assay [1] is 25 to 50%. Further, in assay [2], the “Pax7% (pool of Pax7-positive cells)” value is on record as “++”.

`CC(C)(C)c1cc(NC(=O)Nc2ccc(Oc3ccnc4[nH]c(=O)cnc34)cc2C(F)(F)F)n(-c2ccccc2)n1` [(v), 1-(3-(tert-butyl)-1-phenyl-1H-pyrazol-5-yl)-3-(4-((3-oxo-3,4-dihydropyrido[2,3-b]pyrazin-8-yl)oxy)-2-(trifluoromethyl)phenyl)urea]: the Emax in assay [1] is at least 75%. Moreover, the “Pax7% (pool of Pax7-positive cells)” value in assay [2] is “++”.

Consider `Cc1nc2c(Oc3ccc(NC(=O)Nc4cc(C(C)(C)C)nn4-c4ccccc4)c(F)c3)ccnc2c(=O)[nH]1` [(w), 1-(3-(tert-butyl)-1-phenyl-1H-pyrazol-5-yl)-3-(2-fluoro-4-((2-methyl-4-oxo-3,4-dihydropyrido[3,2-d]pyrimidin-8-yl)oxy)phenyl)urea], for which the Emax in assay [1] lay within 50 to 75%. Also, in assay [2], the “Pax7% (pool of Pax7-positive cells)” value is “++”.

Regarding `O=C(Nc1ccc(Oc2ccnc3[nH]c(=O)cnc23)cc1F)Nc1c2c(nn1-c1ccccc1)CCC2` [(x), 1-(2-fluoro-4-((3-oxo-3,4-dihydropyrido[2,3-b]pyrazin-8-yl)oxy)phenyl)-3-(2-phenyl-2,4,5,6-tetrahydrocyclopenta[c]pyrazol-3-yl)urea], in assay [1], the Emax was 25 to 50%. For the same compound, the “Pax7% (pool of Pax7-positive cells)” value in assay [2] is on record as “++”.
